pIC50: −log10 of the molar value.
What follows are compounds tested against T1, human S1P1 receptors (Homo sapiens, UniProt P21453) (assay: S1P1R antagonist assay (fluorescent membrane potential dye, cAMP readout)). Settings: HEK293 cells expressing human S1P1 receptors and CNG channel; 500 nM NECA; S1P1R agonist 10 nM; 90 minutes; read-out: EC50 or IC50 value.
T1 construct: host or cells: HEK293
Type: cell-based

T1 sequence (P21453 whole entry): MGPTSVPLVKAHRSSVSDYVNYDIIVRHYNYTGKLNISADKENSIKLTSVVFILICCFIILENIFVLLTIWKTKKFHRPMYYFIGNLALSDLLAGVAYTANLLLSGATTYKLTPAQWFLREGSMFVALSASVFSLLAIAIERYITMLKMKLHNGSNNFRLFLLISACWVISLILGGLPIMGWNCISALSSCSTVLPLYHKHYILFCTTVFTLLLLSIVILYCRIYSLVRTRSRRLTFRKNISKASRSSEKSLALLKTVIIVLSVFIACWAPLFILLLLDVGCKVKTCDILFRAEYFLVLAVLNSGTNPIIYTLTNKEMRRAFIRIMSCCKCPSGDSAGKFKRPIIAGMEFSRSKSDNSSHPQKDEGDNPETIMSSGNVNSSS

| Compound | pIC50 |
| --- | --- |
| COc1ccc(OC)c(CC(=O)NC(COCc2ccccc2)C(=O)Nc2ccc(Oc3ccccc3)cc2)c1 (stereo not shown) [Compound 280, N-(2-oxo-1-{[(phenylmethyl)oxy]methyl}-2-{[4-(phenyloxy)phenyl]amino}ethyl)-2,5-dimethoxyphenylacetamide] | < 6.00 |
| Cc1cc(C(=O)NC(COCc2ccccc2)C(=O)Nc2ccc(Oc3ccccc3)cc2)ccc1Cl (stereo not shown) [Compound 379, 4-chloro-3-methyl-N-(2-oxo-1-{[(phenylmethyl)oxy]methyl}-2-{[4-(phenyloxy)phenyl]amino}ethyl)benzamide] | < 6.00 |
| CCN1CCN(CC(=O)N[C@@H](COCc2ccccc2)C(=O)Nc2ccc(Oc3ccc(F)cc3)cc2)CC1 [Compound 114, (S)-3-(benzyloxy)-2-(2-(4-ethylpiperazin-1-yl)acetamido)-N-(4-(4-fluorophenoxy)phenyl)propanamide] | < 6.00 |
| O=C(Nc1ccc(Oc2ccc(F)cc2)cc1)[C@@H]1C[C@@H](Cc2cccc(Cl)c2)CN1C(=O)Cn1ccnn1 [Compound 263, (2S,4R)-1-(2-(1H-1,2,3-triazol-1-yl)acetyl)-4-(3-chlorobenzyl)-N-(4-(4-fluorophenoxy)phenyl)pyrrolidine-2-carboxamide] | ≥ 6.52 |
| O=C(Cc1c(F)ccc(F)c1F)NC(COCc1ccccc1)C(=O)Nc1ccc(Oc2ccccc2)cc1 (stereo not shown) [Compound 361, N-(2-oxo-1-{[(phenylmethyl)oxy]methyl}-2-{[4-(phenyloxy)phenyl]amino}ethyl)-2-(2,3,6-trifluorophenyl)acetamide] | < 6.00 |
| C#CCCC(=O)NC(COCc1ccccc1)C(=O)Nc1ccc(Oc2ccccc2)cc1 (stereo not shown) [Compound 344, N-(2-oxo-1-{[(phenylmethyl)oxy]methyl}-2-{[4-(phenyloxy)phenyl]amino}ethyl)pent-4-ynamide] | < 6.00 |
| CC(=O)c1ccc(OCC(=O)NC(COCc2ccccc2)C(=O)Nc2ccc(Oc3ccccc3)cc2)cc1 (stereo not shown) [Compound 319, N-(2-oxo-1-{[(phenylmethyl)oxy]methyl}-2-{[4-(phenyloxy)phenyl]amino}ethyl)-4-acetylphenoxyacetamide] | < 6.00 |
| Cc1n[nH]c(C)c1CC(=O)N[C@@H](COCc1ccc(F)cc1)C(=O)Nc1ccc(Oc2ccc(F)cc2)cc1 [Compound 258, (S)-2-(2-(3,5-dimethyl-1H-pyrazol-4-yl)acetamido)-3-(4-fluorobenzyloxy)-N-(4-(4-fluorophenoxy)phenyl)propanamide] | ≥ 6.52 |
| COc1ccc2[nH]c(C)c(CC(=O)NC(COCc3ccccc3)C(=O)Nc3ccc(Oc4ccccc4)cc3)c2c1 (stereo not shown) [Compound 352, N-(2-oxo-1-{[(phenylmethyl)oxy]methyl}-2-{[4-(phenyloxy)phenyl]amino}ethyl)-2-(5-methoxy-2-methyl-1H-indol-3-yl)acetamide] | < 6.00 |
| O=C(Nc1ccc(Oc2ccc(F)cc2)cc1)[C@@H]1C[C@@H](Cc2ccccc2)CN1C(=O)Cc1c[nH]c2ccccc12 [Compound 98, (2S,4R)-1-(2-(1H-indol-3-yl)acetyl)-4-benzyl-N-(4-(4-fluorophenoxy)phenyl)pyrrolidine-2-carboxamide] | ≥ 6.52 |
| O=C(NC(COCc1ccccc1)C(=O)Nc1ccc(Oc2ccccc2)cc1)C(=O)c1ccco1 (stereo not shown) [Compound 14, 3-(benzyloxy)-2-(2-(furan-2-yl)-2-oxoacetamido)-N-(4-phenoxyphenyl)propanamide] | < 6.00 |
| O=C(Nc1ccc(Oc2ccc(F)cc2)cc1)[C@@H]1C[C@@H](Cc2ccc(F)cc2)CN1C(=O)Cn1ccnn1 [Compound 75, (2S,4R)-1-(2-(1H-1,2,3-triazol-1-yl)acetyl)-4-(4-fluorobenzyl)-N-(4-(4-fluorophenoxy)phenyl)pyrrolidine-2-carboxamide] | ≥ 6.52 |
| Cc1ccc(CC(=O)NC(COCc2ccccc2)C(=O)Nc2ccc(Oc3ccccc3)cc2)cc1 (stereo not shown) [Compound 372, N-(2-oxo-1-{[(phenylmethyl)oxy]methyl}-2-{[4-(phenyloxy)phenyl]amino}ethyl)-2-p-tolylacetamide] | < 6.00 |
| O=C(Nc1ccc(Oc2ccccc2)cc1)C(COCc1ccccc1)NC(=O)[C@H]1CCCO1 (stereo partly drawn) [Compound 23, (2R)—N-(3-(benzyloxy)-1-oxo-1-(4-phenoxyphenylamino)propan-2-yl)tetrahydrofuran-2-carboxamide] | < 6.00 |
| O=C(Nc1ccc(Oc2ccc(F)cc2)cc1)[C@@H]1C[C@@H](Cc2ccccc2)CN1C(=O)CN1CCOCC1 [Compound 116, (2S,4R)-4-benzyl-N-(4-(4-fluorophenoxy)phenyl)-1-(2-morpholinoacetyl)pyrrolidine-2-carboxamide] | ≥ 6.52 |
| C[C@@H](C(=O)NC(COCc1ccccc1)C(=O)Nc1ccc(Oc2ccccc2)cc1)c1ccccc1 (stereo partly drawn) [Compound 354, N-(2-oxo-1-{[(phenylmethyl)oxy]methyl}-2-{[4-(phenyloxy)phenyl]amino}ethyl)-2R-phenylpropanamide] | 6.00 to 6.52 |
| O=C(Nc1ccc(Oc2ccc(F)cc2)cc1)[C@@H]1C[C@@H](Cc2ccccc2)CN1C(=O)Cc1c(F)ccc(F)c1F [Compound 84, (2S,4R)-4-benzyl-N-(4-(4-fluorophenoxy)phenyl)-1-(2-(2,3,6-trifluorophenyl)acetyl)pyrrolidine-2-carboxamide] | ≥ 6.52 |

| Compound | pIC50 |
| --- | --- |
| O=C(Nc1ccc(Oc2ccc(F)cc2)cc1)[C@@H]1C[C@@H](Cc2ccccc2Cl)CN1C(=O)Cn1nccn1 [Compound 56, (2S,4R)-1-(2-(2H-1,2,3-triazol-2-yl)acetyl)-4-(2-chlorobenzyl)-N-(4-(4-fluorophenoxy)phenyl)pyrrolidine-2-carboxamide] | ≥ 6.52 |
| O=C(Cn1cncn1)N[C@@H](CCCNC(=O)OCc1ccccc1)C(=O)Nc1ccc(Oc2ccc(F)cc2)cc1 [Compound 165, (S)-benzyl 4-(2-(1H-1,2,4-triazol-1-yl)acetamido)-5-(4-(4-fluorophenoxy)phenylamino)-5-oxopentylcarbamate] | ≥ 6.52 |
| CC(=O)O[C@@H](C)C(=O)NC(COCc1ccccc1)C(=O)Nc1ccc(Oc2ccccc2)cc1 (stereo partly drawn) [Compound 25, (2S)-1-(3-(benzyloxy)-1-oxo-1-(4-phenoxyphenylamino)propan-2-ylamino)-1-oxopropan-2-yl acetate] | < 6.00 |
| O=C(COc1ccc(F)cc1)NC(COCc1ccccc1)C(=O)Nc1ccc(Oc2ccccc2)cc1 (stereo not shown) [Compound 368, N-(2-oxo-1-{[(phenylmethyl)oxy]methyl}-2-{[4-(phenyloxy)phenyl]amino}ethyl)-2-(4-fluorophenoxy)acetamide] | < 6.00 |
| O=C(Nc1ccc(Oc2ccc(F)cc2)cc1)[C@@H]1CN(Cc2ccccc2)CCN1C(=O)Cc1cnc[nH]1 [Compound 175, (S)-1-(2-(1H-imidazol-4-yl)acetyl)-4-benzyl-N-(4-(4-fluorophenoxy)phenyl)piperazine-2-carboxamide] | ≥ 6.52 |
| C=CCCC(=O)NC(COCc1ccccc1)C(=O)Nc1ccc(Oc2ccccc2)cc1 (stereo not shown) [Compound 298, N-(2-oxo-1-{[(phenylmethyl)oxy]methyl}-2-{[4-(phenyloxy)phenyl]amino}ethyl)pent-4-enamide] | < 6.00 |
| O=C(Nc1ccc(Oc2ccc(F)cc2)cc1)[C@@H]1C[C@@H](Cc2cccc(Cl)c2)CN1C(=O)Cn1cncn1 [Compound 61, (2S,4R)-1-(2-(1H-1,2,4-triazol-1-yl)acetyl)-4-(3-chlorobenzyl)-N-(4-(4-fluorophenoxy)phenyl)pyrrolidine-2-carboxamide] | ≥ 6.52 |
| CC(C(=O)NC(COCc1ccccc1)C(=O)Nc1ccc(Oc2ccccc2)cc1)c1ccccc1 (stereo not shown) [Compound 359, N-(2-oxo-1-{[(phenylmethyl)oxy]methyl}-2-{[4-(phenyloxy)phenyl]amino}ethyl)-2-phenylpropanamide] | < 6.00 |
| O=C(Nc1ccc(Oc2ccccc2)cc1)C(COCc1ccccc1)NC(=O)[C@H](O)c1ccccc1Cl (stereo partly drawn) [Compound 24, 3-(benzyloxy)-2-((R)-2-(2-chlorophenyl)-2-hydroxyacetamido)-N-(4-phenoxyphenyl)propanamide] | < 6.00 |
| O=C(Cc1cnc[nH]1)N[C@@H](CCCc1ccccc1)C(=O)Nc1ccc(Oc2ccccc2)cc1 [Compound 1, (S)-2-(2-(1H-imidazol-5-yl)acetamido)-5-phenyl-N-(4-phenoxyphenyl)pentanamide] | ≥ 6.52 |
| O=C(Cc1ccc(F)cc1F)NC(COCc1ccccc1)C(=O)Nc1ccc(Oc2ccccc2)cc1 (stereo not shown) [Compound 363, N-(2-oxo-1-{[(phenylmethyl)oxy]methyl}-2-{[4-(phenyloxy)phenyl]amino}ethyl)-2-(2,4-difluorophenyl)acetamide] | < 6.00 |
| O=C(NC(COCc1ccccc1)C(=O)Nc1ccc(Oc2ccccc2)cc1)c1cccc2cccnc12 (stereo not shown) [Compound 357, N-(2-oxo-1-{[(phenylmethyl)oxy]methyl}-2-{[4-(phenyloxy)phenyl]amino}ethyl)quinoline-8-carboxamide] | 6.00 to 6.52 |
| O=C(Nc1ccc(Oc2ccc(F)cc2)cc1)[C@@H]1C[C@@H](Cc2ccccc2)CN1C(=O)[C@H](O)c1ccccc1 [Compound 40, (2S,4R)-4-benzyl-N-(4-(4-fluorophenoxy)phenyl)-1-((R)-2-hydroxy-2-phenylacetyl)pyrrolidine-2-carboxamide] | ≥ 6.52 |
| Cc1noc(C)c1NC(=O)N[C@@H](COCc1ccccc1)C(=O)Nc1ccc(Oc2ccc(F)cc2)cc1 [Compound 172, (S)-2-(3-(3,5-dimethylisoxazol-4-yl)ureido)-3-benzyloxy-N-(4-(4-fluorophenoxy)phenyl)propanamide] | ≥ 6.52 |
| O=C(Nc1ccc(Oc2ccc(F)cc2)cc1)[C@@H]1C[C@@H](Cc2ccc(Cl)cc2)CN1C(=O)Cn1ccnn1 [Compound 228, (2S,4R)-1-(2-(1H-1,2,3-triazol-1-yl)acetyl)-4-(4-chlorobenzyl)-N-(4-(4-fluorophenoxy)phenyl)pyrrolidine-2-carboxamide] | ≥ 6.52 |
| COc1cc(CC(=O)NC(COCc2ccccc2)C(=O)Nc2ccc(Oc3ccccc3)cc2)cc(OC)c1OC (stereo not shown) [Compound 392, N-(2-oxo-1-{[(phenylmethyl)oxy]methyl}-2-{[4-(phenyloxy)phenyl]amino}ethyl)-2-(3,4,5-trimethoxyphenyl)acetamide] | 6.00 to 6.52 |
| COc1ccc(Oc2ccc(NC(=O)[C@H](COCc3ccccc3)NC(=O)Cc3c[nH]cn3)cc2)cc1 [Compound 202, (S)-2-(2-(1H-imidazol-4-yl)acetamido)-3-(benzyloxy)-N-(4-(4-methoxyphenoxy)phenyl)propanamide] | ≥ 6.52 |

— US8791102B2, “Acetanilide sphingosine-1-phosphate receptor antagonists” (Exelixis, Inc., priority 2008, dated 2014)
